Test results as given in US20250129018A1, “PLEUROMUTILIN DERIVATIVES CONTAINING CYCLOALKYL GROUP AND PREPARATION METHODS AND APPLICATIONS THEREOF” (priority 2023, published 2025).
Converted amounts (≈) assume the structure as drawn. Like-named read-outs stand apart in the source and are kept apart here.

Legend:
S. aureus-29213 = assay: MIC, two-fold serial dilution method; type: cell-based, Staphylococcus aureus; details: for MIC: Staphylococcus aureus, read-out: minimum inhibitory concentration
Method: (§1) The pleuromutilin derivatives 1-4 prepared from Example 9 of the present disclosure were determined for their effect on Methicillin-resistant Staphylococcus aureus, Methicillin-resistant Staphylococcus epidermidis, standard strains of Staphylococcus aureus (S. aureus-29213 and S. aureus-25923), clinical strains 1-48 of S. aureus, Escherichia coli, S. agalactiae and S. dysgalactiae equisimilis (S. dysgalactiae-1, S. dysgalactiae-2, S. dysgalactiae-3) and minimum inhibitory concentration (MIC) using a two-fold serial dilution method, and the results were shown in Table 1, Table 2 and Table 3. The standard strains are commercially available from ATCC, and the clinical strains are preserved by Lanzhou Institute of Husbandry and Pharmaceutical Science of Chinese Academy of Agricultural Sciences (Lanzhou, Gansu, China).

S. aureus-25923 = assay: MIC, two-fold serial dilution method; type: cell-based, Staphylococcus aureus; details: for MIC: Staphylococcus aureus, read-out: minimum inhibitory concentration
Method: as §1

MRSA-337371 = assay: In vivo antimicrobial activity experiment in mice (systemic MRSA infection, survival); details: for protection rate against systemic MRSA infection in mice: 20 mg/kg; for mortality rate / final survival rate: immunosuppressed mice infected i.p. with MRSA-337371; for final survival rate: end of observation
Method: First, an MRSA-337371 cryopreservation solution was taken out from a freezer set at −80° C. and the following steps were performed: • (1) 10 μL of the thawed MRSA-337371 cryopreservation solution was pipetted and added into 6 mL of Tryptic Soy Broth (TSB), and incubated until the bacterial solution had become turbid; • (2) a sterile inoculation loop was dipped into and picked up a small amount of the bacterial solution and was dragged on an MH agar medium for streaking, and then the MH agar medium was inverted and placed in a constant temperature incubator at 37° C. to incubate for 24 hours; • (3) a single colony on the MH agar medium was picked and inoculated in 30 mL of MH liquid medium with an inoculation loop, and placed in a constant temperature shaking incubator at 37° C. for 18 hours for later use. […]
6-week-old, about 20 g-weighted, SPF-grade healthy mice (one half male and the other female) were randomly divided into 5 groups, with 10 mice in each group (one half male and the other female), which were specifically divided into a positive control group (an MRSA infection group), a negative control group (a sterile normal saline control group, which was injected with only 10 mL/kg of drug solvent), drug control groups (a Tiamulin treatment group and a Valnemulin treatment group) and an experimental group (a derivative 2 treatment group). 100 mg/kg of cyclophosphamide was intraperitoneally injected to the mice 4 days before the experiment, and 150 mg/kg of cyclophosphamide injection was injected to the mice 1 day before the experiment to keep the mice in an immunosuppressed state. After fasting for 12 hours, except for the negative control group, the remaining 4 groups were intraperitoneally injected with 0.5 mL of 10^8 CFU/mL bacterial solution, and after 30 min, the drug control groups and the experimental group were intravenously injected with 20 mg/kg of the respective drug. The mice were continued to be reared, and observed to record the deaths daily.
Calculation of survival rate: During the experiment, the morbidity and the mortality in each group of mice was observed and recorded in detail every day, and the survival rate in each group of mice was calculated as:
Survival rate=Number of surviving animals/Number of experimental animals×100%

S. aureus-40 = assay: MIC, clinical strain; type: cell-based, Staphylococcus aureus
Method: as §1

S. aureus-19 = assay: MIC, clinical strain; type: cell-based, Staphylococcus aureus
Method: as §1

S. aureus-8 = assay: MIC, clinical strain; type: cell-based, Staphylococcus aureus
Method: as §1

S. aureus-18 = assay: MIC, clinical strain; type: cell-based, Staphylococcus aureus
Method: as §1

S. aureus-17 = assay: MIC, clinical strain; type: cell-based, Staphylococcus aureus
Method: as §1

S. aureus-44 = assay: MIC, clinical strain; type: cell-based, Staphylococcus aureus
Method: as §1

S. aureus-32 = assay: MIC, clinical strain; type: cell-based, Staphylococcus aureus
Method: as §1

S. aureus-29 = assay: MIC, clinical strain; type: cell-based, Staphylococcus aureus
Method: as §1

S. aureus-13 = assay: MIC, clinical strain; type: cell-based, Staphylococcus aureus
Method: as §1

S. aureus-35 = assay: MIC, clinical strain; type: cell-based, Staphylococcus aureus
Method: as §1

S. aureus-36 = assay: MIC, clinical strain; type: cell-based, Staphylococcus aureus
Method: as §1

S. aureus-20 = assay: MIC, clinical strain; type: cell-based, Staphylococcus aureus
Method: as §1

S. aureus-30 = assay: MIC, clinical strain; type: cell-based, Staphylococcus aureus
Method: as §1

S. aureus-34 = assay: MIC, clinical strain; type: cell-based, Staphylococcus aureus
Method: as §1

S. aureus-47 = assay: MIC, clinical strain; type: cell-based, Staphylococcus aureus
Method: as §1

S. aureus-3 = assay: MIC, clinical strain; type: cell-based, Staphylococcus aureus
Method: as §1

S. aureus-23 = assay: MIC, clinical strain; type: cell-based, Staphylococcus aureus
Method: as §1

S. aureus-9 = assay: MIC, clinical strain; type: cell-based, Staphylococcus aureus
Method: as §1

S. aureus-1 = assay: MIC, clinical strain; type: cell-based, Staphylococcus aureus
Method: as §1

S. aureus-46 = assay: MIC, clinical strain; type: cell-based, Staphylococcus aureus
Method: as §1

S. aureus-24 = assay: MIC, clinical strain; type: cell-based, Staphylococcus aureus
Method: as §1

S. aureus-6 = assay: MIC, clinical strain; type: cell-based, Staphylococcus aureus
Method: as §1

S. aureus-25 = assay: MIC, clinical strain; type: cell-based, Staphylococcus aureus
Method: as §1

S. aureus-2 = assay: MIC, clinical strain; type: cell-based, Staphylococcus aureus
Method: as §1

S. aureus-37 = assay: MIC, clinical strain; type: cell-based, Staphylococcus aureus
Method: as §1

S. aureus-12 = assay: MIC, clinical strain; type: cell-based, Staphylococcus aureus
Method: as §1

[1] = day 1, 20 mg/kg intravenously 30 min after infection

| SMILES | protection rate against systemic MRSA infection in mice (MRSA-337371) [%] | mortality rate (MRSA-337371; [1]) [%] | mortality rate (MRSA-337371; day 2, 20 mg/kg intravenously) [%] | final survival rate (MRSA-337371; 20 mg/kg intravenously) [%] | in vitro minimum inhibitory concentration (S. aureus-40) | in vitro minimum inhibitory concentration (S. aureus-19) | in vitro minimum inhibitory concentration (S. aureus-8) | in vitro minimum inhibitory concentration (S. aureus-18) | in vitro minimum inhibitory concentration (S. aureus-17) | in vitro minimum inhibitory concentration (S. aureus-44) | in vitro minimum inhibitory concentration (S. aureus-32) | in vitro minimum inhibitory concentration (S. aureus-29) | in vitro minimum inhibitory concentration (S. aureus-35) | in vitro minimum inhibitory concentration (S. aureus-36) | in vitro minimum inhibitory concentration (S. aureus-30) | in vitro minimum inhibitory concentration (S. aureus-34) | in vitro minimum inhibitory concentration (S. aureus-47) | in vitro minimum inhibitory concentration (S. aureus-3) | in vitro minimum inhibitory concentration (S. aureus-23) | in vitro minimum inhibitory concentration (S. aureus-9) | further results |
| --- | --- | --- | --- | --- | --- | --- | --- | --- | --- | --- | --- | --- | --- | --- | --- | --- | --- | --- | --- | --- | --- |
| C=C[C@]1(C)C[C@@H](OC(=O)CSCCN(CC)CC)[C@]2(C)[C@H](C)CC[C@]3(CCC(=O)[C@H]32)[C@@H](C)[C@@H]1O [Tiamulin] | 10 | 50 | 80 | 10 | 1 | 0.5 | 0.5 | 0.125 | 0.5 | 0.5 | 1 | 1 | 0.5 | 0.25 | 0.5 | 0.5 | 0.5 | 0.5 | 0.5 | 0.5 | MIC (S. aureus-29213; S. aureus-29213): 0.5 µg/mL (≈ 1.01 µM); MIC (S. aureus-25923; S. aureus-25923): 0.25 µg/mL (≈ 0.506 µM); mortality rate (MRSA-337371; day 3, 20 mg/kg intravenously): 90%; in vitro minimum inhibitory concentration (S. aureus-13): 0.25 µg/mL; in vitro minimum inhibitory concentration (S. aureus-20): 0.5 µg/mL; in vitro minimum inhibitory concentration (S. aureus-1): 0.5 µg/mL; in vitro minimum inhibitory concentration (S. aureus-46): 1; in vitro minimum inhibitory concentration (S. aureus-24): 0.25; in vitro minimum inhibitory concentration (S. aureus-6): 0.25; in vitro minimum inhibitory concentration (S. aureus-25): 0.5; in vitro minimum inhibitory concentration (S. aureus-2): 0.5; in vitro minimum inhibitory concentration (S. aureus-37): 0.5; in vitro minimum inhibitory concentration (S. aureus-12): 0.5 |
| C=C[C@]1(C)C[C@@H](OC(=O)CSC(C)(C)CNC(=O)[C@H](N)C(C)C)[C@]2(C)[C@H](C)CC[C@]3(CCC(=O)[C@H]32)[C@@H](C)[C@@H]1O [Valnemulin] | 20 | 30 | 80 | 20 | 0.063 | 0.063 | 0.063 | 0.063 | 0.063 | 0.063 | 0.063 | 0.063 | 0.063 | 0.063 | 0.063 | 0.063 | 0.063 | 0.063 | 0.063 | 0.063 | MIC (S. aureus-29213): 0.063 µg/mL (≈ 0.112 µM); MIC (S. aureus-25923): 0.031 µg/mL (≈ 0.0549 µM); in vitro minimum inhibitory concentration (S. aureus-13; in µg/mL): 0.063; in vitro minimum inhibitory concentration (S. aureus-20; in µg/mL): 0.125; in vitro minimum inhibitory concentration (S. aureus-1): 0.25 µg/mL; in vitro minimum inhibitory concentration (S. aureus-46): 0.063; in vitro minimum inhibitory concentration (S. aureus-24): 0.063; in vitro minimum inhibitory concentration (S. aureus-6): 0.063; in vitro minimum inhibitory concentration (S. aureus-25): 0.063; in vitro minimum inhibitory concentration (S. aureus-2): 0.25; in vitro minimum inhibitory concentration (S. aureus-37): 0.063; in vitro minimum inhibitory concentration (S. aureus-12): 0.031 |
| C=CC1(C)CC(OC(=O)CSC(C)(C)CNC(=O)C2CCC2)C2(C)C(C)CCC3(CCC(=O)C32)C(C)C1O (centres unmarked) [derivative 2] | 60 | 10 | 40 | 60 | 0.016 | 0.125 | 0.063 | 0.031 | 0.063 | 0.031 | 0.063 | 0.031 | 0.125 | 0.016 | 0.031 | 0.063 | 0.063 | 0.031 | 0.063 | 0.063 | minimum inhibitory concentration (S. aureus-29213; S. aureus-29213): 0.063 µg/mL (≈ 0.115 µM); minimum inhibitory concentration (S. aureus-25923; S. aureus-25923): 0.031 µg/mL (≈ 0.0566 µM); treatment effect in mice (MRSA-337371; compared with marketed drugs): superior to the marketed Tiamulin and Valnemulin; in vitro minimum inhibitory concentration (S. aureus-13; in µg/mL): 0.031; in vitro minimum inhibitory concentration (S. aureus-20; in µg/mL): 0.063; in vitro minimum inhibitory concentration (S. aureus-1; in µg/mL): 0.125; in vitro minimum inhibitory concentration (S. aureus-46): 0.063; in vitro minimum inhibitory concentration (S. aureus-24): 0.063; in vitro minimum inhibitory concentration (S. aureus-6): 0.031; in vitro minimum inhibitory concentration (S. aureus-25): 0.063; in vitro minimum inhibitory concentration (S. aureus-2): 0.063; in vitro minimum inhibitory concentration (S. aureus-37): 0.063; in vitro minimum inhibitory concentration (S. aureus-12): 0.031 |
